Experimental data published in publication PMC7956625, “Optimization and Anti-Cancer Properties of Fluoromethylketones as Covalent Inhibitors for Ubiquitin C-Terminal Hydrolase L1” (Molecules, 2021).
Entries after “also recorded” stand apart in the source; their conditions may differ. Where a SMILES comes first, the peptide text is derived from it. The star is where a group is joined. Cbz = O=C(OCc1ccccc1)*; CH2F = FC*

Columns and labels:
[1] = molecular target: T1, UCHL3 (Homo sapiens, UniProt P15374); experiment: KMS cell activity-based probe (HA-Ub-VME) target engagement assay; conditions: 0–250 µM, 4 h, UCHL3 immunoblot
T1 sequence (P15374 1-230): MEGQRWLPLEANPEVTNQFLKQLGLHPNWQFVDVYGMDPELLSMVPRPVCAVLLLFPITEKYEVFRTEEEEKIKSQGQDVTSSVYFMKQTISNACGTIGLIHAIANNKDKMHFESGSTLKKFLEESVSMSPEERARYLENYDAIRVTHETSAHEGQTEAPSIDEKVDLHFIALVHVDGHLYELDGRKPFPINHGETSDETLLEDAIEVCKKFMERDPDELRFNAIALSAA
Procedure: (§1) To confirm on-target engagement in KMS11 cells, a Ub activity-based probe (ABP) gel-shift assay was employed. Using the hemagglutinin-tagged Ub-vinylmethylester (HA-Ub-VME) ABP to examine the activity of 1 in KMS11 cells, an immunoblot was performed. Cells were treated in dose-response with 1 (0–250 µM), washed with PBS, then lysed and treated with HA-Ub-VME. The HA-Ub-VME labels any remaining DUBs that have not been inhibited by 1.
(§2) Twelve hours prior to the addition of compounds to the cells, 1.2 million KMS11 or KMS12 cells mL^−1 per well were seeded in a 12 well plate. Cells were incubated with inhibitor for 4 h before washing the cells three time with PBS to remove excess compound. Cells were harvested, pelleted, and lysed in 60 µL of lysis buffer (0.5%NP-40 in 50 mM Tris pH 7.4). HA-Ub-VME was then added to a final concentration of 1 µM and incubated for 1 h at room temperature. An equal volume of 2X Laemmli sample buffer was added, and the samples were heated to 95 °C before separating by gel electrophoresis and analyzed by immunoblot.

[2] = tested on: KMS12 cells; experiment: KMS cell proliferation assay (IncuCyte); assay type: cell-based; conditions: 100 µM; 24 to 96 h; cells do not express UCHL1
Procedure: (§3) The proliferation of KMS11 and KMS12 cells was monitored using an IncuCyte devise (Sartorius, Goettingen, Germany; www.essenbioscience.com, accessed on 31 August 2020). Cells (3 × 10^4 per well; 200 µL) were seeded in triplicate in 96 well plates the night prior to the addition of compounds. The IncuCyte was set to collect images from five fields per well at 4-h intervals by using the nuclear dye Nuclight Red (Sartorius). At each timepoint, the number of cells per well was deter- mined by taking the mean of the five locations in each well. The relative proliferation at each timepoint was normalized, with 100% set as the number of cells observed for incubated with DMSO (0.1%) controls at 72 h.

[3] = tested on: KMS11 cells; experiment: KMS cell proliferation assay (IncuCyte); assay type: cell-based; conditions: 100 µM; 24, 48, 72 and 96 h
Procedure: as §3

[4] = molecular target: T1, UCHL3; set-up: His (N); made in house; method as in PMID 22617491; conditions: concentrations up to 400 µM; cited from earlier work
[5] = molecular target: T2, UCHL5 (Homo sapiens, UniProt Q9Y5K5); experiment: KMS cell activity-based probe (HA-Ub-VME) assay, HA blot higher exposure; conditions: 250 µM, KMS11 cells
T2 sequence (Q9Y5K5 1-245 limits assumed): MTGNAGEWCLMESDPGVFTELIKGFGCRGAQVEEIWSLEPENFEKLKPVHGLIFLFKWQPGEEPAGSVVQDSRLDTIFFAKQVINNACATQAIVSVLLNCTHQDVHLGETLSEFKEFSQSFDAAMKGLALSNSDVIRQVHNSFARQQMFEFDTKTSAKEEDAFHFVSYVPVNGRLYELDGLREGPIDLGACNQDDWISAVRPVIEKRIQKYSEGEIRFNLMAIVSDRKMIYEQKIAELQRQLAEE
Procedure: as §1, §2

[6] = molecular target: T2, UCHL5; set-up: method as in PMID 22617491; conditions: concentrations up to 400 µM; cited from earlier work
[7] = molecular target: T3, UCHL1 (Homo sapiens, UniProt P09936); experiment: Fluorescence-based Ub-Rho deubiquitinase activity assay; assay type: biochemical; set-up: made in house; conditions: IC50, after approximately 112 min preincubation
T3 sequence (P09936 1-223): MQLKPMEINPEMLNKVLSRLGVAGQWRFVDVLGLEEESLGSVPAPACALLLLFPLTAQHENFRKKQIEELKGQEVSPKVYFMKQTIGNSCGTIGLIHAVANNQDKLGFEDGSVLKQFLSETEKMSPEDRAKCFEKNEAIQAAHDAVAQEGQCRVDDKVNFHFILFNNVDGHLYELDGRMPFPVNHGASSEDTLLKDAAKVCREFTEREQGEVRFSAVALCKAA

[8] = tested on: SW1271 cells; experiment: Click reaction and in-gel fluorescence of treated SW1271 cells; assay type: cell-based; conditions: 100 µM, 4 h
Procedure: Leveraging the alkyne handle, a click reaction was performed with an azide containing sulfo-cyanine5 fluorophore (Cy5) to visualize proteins within the cells that were conjugated to either the fluoromethylketone 34 or the chloromethylketone 37. Cells were pretreated with either analog then harvested and washed to removed unreacted inhibitor. The cells were then lysed and the click reaction was performed on lysates. […] Further evaluation using proteomic profiling is warranted to gain a quantitative understanding on the potential for non-specificity at off-target cysteines.
Cells were treated with 100 µM inhibitor or DMSO for 4 h before being washed, scraped, and lysed in 200 µL of lysis buffer (1× PBS, 1% v/v Triton X-100, 0.1% w/v SDS, 1X HALT) for 30 min on ice with vigorous vortexing every 10 min. Samples were then pelleted at 17,000× g for 10 min before collecting the supernatant and measuring concentration using BCA. Samples were normalized to 2 mg/mL and stored at −80 °C overnight. The following day, samples were thawed. While thawing, a click cocktail was prepared (for each sample, the cocktail consists of: 3 µL of 1.7 mM THPTA in 1:4 tBuOH/DMSO, 1 µL of 50 mM CuSO4 in water, 1 µL of 1.25 mM Cy5-N3 in DMSO, and 1 µL of 50 mM TCEP in water freshly prepared). […] The samples were then analyzed by SDS-PAGE and imaged on a Licor Odyssey and subsequently Coomassie stained.

| SMILES | HA-Ub-UCHL3 complex formation in KMS11 cells [1] | proliferation of KMS12 cells compared to DMSO [2] | proliferation of KMS11 cells compared to DMSO [3] | activity toward UCHL3 [4] | inhibition of DUB corresponding to the molecular weight UCHL5 [5] | activity toward UCHL5 [6] | IC50 [7] [µM] | proteins labelled in SW1271 cells (Cy5 click, in-gel fluorescence) [8] |
| --- | --- | --- | --- | --- | --- | --- | --- | --- |
| COC(=O)CC[C@H](NC(=O)[C@H](C)NC(=O)[C@@H](NC(=O)OCc1ccccc1)C(C)C)C(=O)CF [Cpd 1, benzyloxycarbonyl-Val-Ala-Glu(γ-methoxy)-fluoromethylketone] (Cbz-Val-Ala-Glu(OMe)-CH2F) | does not inhibit UCHL3 in cells | showed reduced growth at the 24-h timepoint but regained proliferative ability at the 96-h timepoint | reduced proliferation; also recorded: anti-proliferative properties | not possess any activity | may also be inhibited | not possess any activity | 29 |  |
| C#Cc1ccc(COC(=O)N[C@H](C(=O)N[C@@H](C)C(=O)N[C@@H](CCC(=O)OC)C(=O)CF)C(C)C)cc1 [Cpd 34] |  |  |  |  |  |  |  | high selectivity in cells |
